Like-named read-outs stand apart in the source and are kept apart here.
Columns and labels:
[1] = molecular target: GDP-bound KRAS wild-type protein (Homo sapiens, UniProt P01116); test: Binding to KRAS by surface plasmon resonance (SPR), Single Cycle Kinetics; details: GDP-bound KRAS wild-type protein, read-out: KRAS KD
[2] = molecular target: GDP-bound NRAS wild-type protein (Homo sapiens, UniProt P01111); test: Binding to NRAS by surface plasmon resonance (SPR), Single Cycle Kinetics; details: for NRAS/KRAS (ratio of KD value for NRAS to KD value for KRAS): SPR, GDP-bound NRAS wild-type protein vs GDP-bound KRAS wild-type protein; for NRAS/KRAS (ratio of KD value with respect to GDP-bound NRAS wild-type protein to KD value with respect to KRAS): SPR KD ratio NRAS/KRAS, class symbols
Chain of GDP-bound NRAS wild-type protein (P01111 whole entry): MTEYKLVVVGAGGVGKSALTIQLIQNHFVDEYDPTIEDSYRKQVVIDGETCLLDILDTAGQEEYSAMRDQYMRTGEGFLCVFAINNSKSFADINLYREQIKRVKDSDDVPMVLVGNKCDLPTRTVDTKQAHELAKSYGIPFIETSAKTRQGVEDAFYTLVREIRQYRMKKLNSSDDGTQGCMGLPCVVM

[3] = molecular target: GDP-bound HRAS wild-type protein (Homo sapiens, UniProt P01112); test: Binding to HRAS by surface plasmon resonance (SPR), Single Cycle Kinetics; details: for HRAS/KRAS (ratio of KD value for HRAS to KD value for KRAS): SPR, GDP-bound HRAS wild-type protein vs GDP-bound KRAS wild-type protein; for HRAS/KRAS (ratio of KD value with respect to GDP-bound HRAS wild-type protein to KD value with respect to KRAS): SPR KD ratio HRAS/KRAS, class symbols
Chain of GDP-bound HRAS wild-type protein (P01112 whole entry): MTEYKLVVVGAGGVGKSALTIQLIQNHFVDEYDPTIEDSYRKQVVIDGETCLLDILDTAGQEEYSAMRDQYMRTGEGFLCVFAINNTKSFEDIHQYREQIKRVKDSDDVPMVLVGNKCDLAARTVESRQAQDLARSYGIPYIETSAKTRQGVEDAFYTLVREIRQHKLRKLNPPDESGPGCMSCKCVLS

[4] = test system: human lung cancer strain NCI-H441;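 also: cell proliferation inhibition after four days measured by CellTiter-Glo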
[5] = SPR, Single Cycle Kinetics, 1:1 binding model
[6] = SPR Single Cycle Kinetics, 1:1 binding model

Chain of GDP-bound KRAS wild-type protein (P01116 whole entry): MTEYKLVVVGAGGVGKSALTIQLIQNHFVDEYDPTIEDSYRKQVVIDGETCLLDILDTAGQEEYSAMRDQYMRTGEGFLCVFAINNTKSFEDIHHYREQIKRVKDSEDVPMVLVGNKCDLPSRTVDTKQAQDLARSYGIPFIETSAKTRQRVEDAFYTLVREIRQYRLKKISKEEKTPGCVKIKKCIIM

Row | Structure (SMILES) | Kd ([1]; SPR, Single Cycle Kinetics) [nM] | NRAS/KRAS (ratio of KD value for NRAS to KD value for KRAS) [2] | HRAS/KRAS (ratio of KD value for HRAS to KD value for KRAS) [3] | IC50 [4] [nM] | Kd [1, 5] [nM] | NRAS/KRAS (ratio of KD value for NRAS to KD value for KRAS) ([2]; KD ratio class) | HRAS/KRAS (ratio of KD value for HRAS to KD value for KRAS) ([3]; KD ratio class) | Kd [1, 6] [nM] | NRAS/KRAS (ratio of KD value with respect to GDP-bound NRAS wild-type protein to KD value with respect to KRAS) [2] | HRAS/KRAS (ratio of KD value with respect to GDP-bound HRAS wild-type protein to KD value with respect to KRAS) [3]
1 | C=CCC[C@H]1C(=O)N[C@@H]([C@@H](C)CC)C(=O)N(C)CC(=O)N(C)[C@H]2CCCCCN(C2=O)[C@@H](Cc2ccc(C(F)(F)F)cc2)C(=O)N(C)CC(=O)N[C@@H](CCc2cc(F)c(C(F)(F)F)c(F)c2)C(=O)N2C[C@H](OCC)C[C@H]2C(=O)N[C@](C)(CC=C)C(=O)N(C)[C@@H](C2CCCC2)C(=O)N(C)[C@H](C(=O)N2CCOCC2)CC(=O)N1C [PP0879] | 8.6 | B (a compound having 3 or more and less than 10 is denoted as B) | B (a compound having 3 or more and less than 10 is denoted as B) | 195 | – | – | – | – | – | –
2 | CC[C@H](C)[C@@H]1NC(=O)[C@H](COC)N(C)C(=O)C[C@@H](C(=O)N(C)C)N(C)C(=O)[C@H](C2CCCC2)N(C)C(=O)C2(CC(C)(C)C2)NC(=O)[C@@H]2C[C@H](C)CN2C(=O)[C@H](CCc2ccc(C(F)(F)F)c(OC)c2)NC(=O)CN(C)C(=O)[C@H](Cc2ccc(C)cc2)N2CC/C=C\C[C@@H](C2=O)N(C)C(=O)[C@@H]2C[C@H](OC)CN2C1=O [PP2390] | 0.28 | A (a compound having 10 or more and less than 20 is denoted as A) | B (a compound having 3 or more and less than 10 is denoted as B) | 96.7 | – | – | – | – | – | –
3 | CCO[C@@H]1C[C@H]2C(=O)NC3(CCC3)C(=O)N(C)[C@@H](C3CCCC3)C(=O)N(C)[C@H](C(=O)N3CCCC3)CC(=O)N(C)[C@@H](CC3CCCCC3)C(=O)N[C@@H]([C@@H](C)CC)C(=O)N(C)CC(=O)N(C)[C@H]3C/C=C\CCN(C3=O)[C@@H](Cc3ccc(C(F)(F)F)cc3)C(=O)N(C)CC(=O)N[C@@H](CCc3cc(F)c(C(F)(F)F)c(F)c3)C(=O)N2C1 [PP1419] | – | – | – | 40.4 | 0.26 | AA (a compound having 20 or more is denoted as AA) | A (a compound having 10 or more and less than 20 is denoted as A) | – | – | –
4 | CCO[C@H](C)[C@@H]1NC(=O)[C@H](CC(C)C)N(C)C(=O)C[C@@H](C(=O)N(C)CC)N(C)C(=O)[C@H](C2CCCC2)N(C)C(=O)C2(CC(C)(C)C2)NC(=O)[C@@H]2C[C@H](C)CN2C(=O)[C@H](CCc2ccc(C(F)(F)F)c(OC)c2)NC(=O)CN(C)C(=O)[C@H](Cc2ccc(C)cc2)N2CC/C=C\C[C@@H](C2=O)N(C)C(=O)[C@@H]2CCCN2C1=O [PP2419] | 2 | A (a compound having 10 or more and less than 20 is denoted as A) | A (a compound having 10 or more and less than 20 is denoted as A) | 125 | – | – | – | – | – | –
5 | CCO[C@@H]1C[C@H]2C(=O)NC3(CCC3)C(=O)N(C)[C@@H](C3CCCC3)C(=O)N(C)[C@H](C(=O)N(C)C)CC(=O)N(C)[C@@H](CC)C(=O)N[C@@H]([C@@H](C)CC)C(=O)N(C)CC(=O)N(C)[C@H]3C/C=C\CCN(C3=O)[C@@H](Cc3ccc(C(F)(F)F)cc3)C(=O)N(C)CC(=O)N[C@@H](CCc3ccc4sccc4c3)C(=O)N2C1 [PP1255] | – | – | – | 156 | 0.39 | A (a compound having 10 or more and less than 20 is denoted as A) | A (a compound having 10 or more and less than 20 is denoted as A) | – | – | –
6 | CCCOC[C@H]1C(=O)N[C@@H]([C@@H](C)CC)C(=O)N(C)CC(=O)N(C)[C@H]2C/C=C\CCN(C2=O)[C@@H](Cc2ccc(C)cc2)C(=O)N(C)CC(=O)N[C@@H](CCc2ccc(C(F)(F)F)c(Cl)c2)C(=O)N2C[C@@H](C)C[C@H]2C(=O)NC2(CC(C)(C)C2)C(=O)N(C)[C@@H](C2CCCC2)C(=O)N(C)[C@H](C(=O)N(C)C)CC(=O)N1C [PP2453] | 0.09 | A (a compound having 10 or more and less than 20 is denoted as A) | A (a compound having 10 or more and less than 20 is denoted as A) | 9.2 | – | – | – | – | – | –
7 | CCC[C@H]1C(=O)N[C@@H](CC(C)C)C(=O)N(CCOC)CC(=O)N(C)[C@H]2C/C=C\CCN(C2=O)[C@@H](Cc2ccc(C)cc2)C(=O)N(C)CC(=O)N[C@@H](CCc2ccc(C(F)(F)F)c(Cl)c2)C(=O)N2C[C@H](OCC)C[C@H]2C(=O)NC2(CCC2)C(=O)N(C)[C@@H](C2CCCC2)C(=O)N(C)[C@H](C(=O)N(C)C)CC(=O)N1C [PP2546] | – | – | – | 295 | – | – | – | 4.7 | B (a compound having 3 or more and less than 10 is denoted as B) | B (a compound having 3 or more and less than 10 is denoted as B)
8 | CCCOC[C@H]1C(=O)N[C@@H]([C@@H](C)CC)C(=O)N(C)CC(=O)N(C)[C@H]2C/C=C\CCN(C2=O)[C@@H](Cc2ccc(C)cc2)C(=O)N(C)CC(=O)N[C@@H](CCc2ccc(C(F)(F)F)c(Cl)c2)C(=O)N2C[C@@H](C)C[C@H]2C(=O)NC2(CC(C)(C)C2)C(=O)N(C)[C@@H](C2CCCC2)C(=O)N(C)[C@H](C(=O)N(C)CC)CC(=O)N1C [PP2467] | 0.26 | A (a compound having 10 or more and less than 20 is denoted as A) | B (a compound having 3 or more and less than 10 is denoted as B) | 21.8 | – | – | – | – | – | –
9 | CCO[C@@H]1C[C@H]2C(=O)NC3(CCC3)C(=O)N(C)[C@@H](C(CC)CC)C(=O)N(C)[C@H](C(=O)N3CCCC3)CC(=O)N(C)[C@@H](C)C(=O)N[C@@H]([C@@H](C)CC)C(=O)N(C)CC(=O)N(C)[C@H]3C/C=C\CCN(C3=O)[C@@H](CC3CCCCC3)C(=O)N(C)CC(=O)N[C@@H](CCc3cc(F)c(C(F)(F)F)c(F)c3)C(=O)N2C1 [PP1434] | – | – | – | 112 | 0.69 | A (a compound having 10 or more and less than 20 is denoted as A) | A (a compound having 10 or more and less than 20 is denoted as A) | – | – | –
10 | CC[C@H](C)[C@@H]1NC(=O)[C@H](C)N(C)C(=O)C[C@@H](C(=O)N(C)C)N(C)C(=O)[C@H](C2CCCC2)N(C)C(=O)C2(CCC2)NC(=O)[C@@H]2CCCN2C(=O)[C@H](CCc2cc(F)c(C(F)(F)F)c(F)c2)NC(=O)CN(C)C(=O)[C@H](Cc2ccc(C(F)(F)F)cc2)N2CC/C=C\C[C@@H](C2=O)N(C)C(=O)CN(C)C1=O [PP1271, (2S,8S,14S,20S,23S,27S,30S,36S,38Z)-20-cyclopentyl-8-[2-[3,5-difluoro-4-(trifluoromethyl)phenyl]ethyl]-N,N,4,19,22,26,27,32,35-nonamethyl-30-[(1S)-1-methylpropyl]-3,6,9,15,18,21,25,28,31,34,42-undecaoxo-2-[[4-(trifluoromethyl)phenyl]methyl]spiro[1,4,7,10,16,19,22,26,29,32,35-undecazatricyclo[34.5.1.0^10,14]dotetracont-38-ene-17,1′-cyclobutane]-23-carboxamide] | – | – | – | 90.7 | 0.054 | AA (a compound having 20 or more is denoted as AA) | A (a compound having 10 or more and less than 20 is denoted as A) | – | – | –
11 | CCC[C@H]1C(=O)N[C@@H](CC(C)C)C(=O)N(C2CC2)CC(=O)N(C)[C@H]2C/C=C\CCN(C2=O)[C@@H](Cc2ccc(C)cc2)C(=O)N(C)CC(=O)N[C@@H](CCc2cc(F)c(C(F)(F)F)c(F)c2)C(=O)N2C[C@H](OCC)C[C@H]2C(=O)NC2(CC(C)(C)C2)C(=O)N(C)[C@@H](C2CCCC2)C(=O)N(C)[C@H](C(=O)N(C)C)CC(=O)N1C [PP2508] | 3.4 | A (a compound having 10 or more and less than 20 is denoted as A) | B (a compound having 3 or more and less than 10 is denoted as B) | 124 | – | – | – | – | – | –
12 | CCC[C@H]1C(=O)N[C@@H]([C@@H](C)CC)C(=O)N(C2CC2)CC(=O)N(C)[C@H]2C/C=C\CCN(C2=O)[C@@H](Cc2ccc(C(F)(F)F)cc2)C(=O)N(C)CC(=O)N[C@@H](CCc2cc(F)c(C(F)(F)F)c(F)c2)C(=O)N2C[C@H](OCC)C[C@H]2C(=O)NC2(CC(C)(C)C2)C(=O)N(C)[C@@H](CC2CCC2)C(=O)N(C)[C@H](C(=O)N(C)C)CC(=O)N1C [PP2768] | – | – | – | 120 | – | – | – | 5.5 | A (a compound having 10 or more and less than 20 is denoted as A) | A (a compound having 10 or more and less than 20 is denoted as A)
13 | CCCO[C@H](C)[C@@H]1NC(=O)[C@H](CC(C)C)N(C)C(=O)C[C@@H](C(=O)N(C)C)N(C)C(=O)[C@H](C2CCCC2)N(C)C(=O)C2(CC(C)(C)C2)NC(=O)[C@@H]2C[C@H](C)CN2C(=O)[C@H](CCc2ccc(C(F)(F)F)c(OC)c2)NC(=O)CN(C)C(=O)[C@H](Cc2ccc(C)cc2)N2CC/C=C\C[C@@H](C2=O)N(C)C(=O)CN(C)C1=O [PP2415] | 0.093 | AA (a compound having 20 or more is denoted as AA) | A (a compound having 10 or more and less than 20 is denoted as A) | 10.3 | – | – | – | – | – | –
